Assay results as given in patent EP0593348A1, “Thiazolidine dione derivatives, process for their preparation and pharmaceutical compositions containing them” (ADIR ET COMPAGNIE, priority 1992, dated 1994).
Where two headings read alike, the source gives them in different places.

How the values were obtained:
[1] = system: souris ob/ob; assay: Hypoglycaemic activity in a non-insulin-dependent diabetes (NIDDM) model, ob/ob mice; assay type: in vivo; conditions: oral, 4 days, base 100, reached at the dose given
Description: A/ Etude de l'activité des composés de l'invention sur un modèle de diabète non insulino-dépendant (NIDDM).
Les animaux (souris ob/ob) sont traités chaque jour, pendant 4 jours, en administrant par voie orale, les composés de l'invention en suspension dans une solution à 20 % de gomme du Sénégal. Avant et après traitement, soit à J0 et à J5, le sang est prélevé par ponction du sinus orbital et la glycémie est déterminée. Le tableau 1 présente les doses des différents produits à administrer pour obtenir le même effet hypoglycémiant (base 100).

[2] = system: rats Zucker Fa/Fa mâles; assay: Model of reduced glucose tolerance with hyperinsulinaemia and hyperlipaemia, male Zucker Fa/Fa rats; assay type: in vivo; conditions: 5 mg/kg/jour oral for 10 days; for Glycémie (%) / Plasma insuline (%): blood on day 11, control = 100; for Poids ΔP% J₁₁-J₁: control = +100; for AGL (%): plasma free fatty acids; for AGL (%) / TG (%): control = 100; for TG (%): plasma triglycerides
Method: B/ Etude de l'activité des composés de l'invention sur un modèle de tolérance au glucose diminuée associée à une hyperinsulinémie et une hyperlipémie .
Les animaux (rats Zucker Fa/Fa mâles) sont traités, chaque jour, pendant 10 jours, en administrant, par voie orale, les composés de l'invention à la dose de 5 mg/kg/jour en suspension dans une solution à 20 % de gomme du Sénégal. Le 11ème jour, les animaux sont sacrifiés et le sang recueilli afin de déterminer la glycémie, les triglycérides plasmatiques et l'insuline immuno-réactive. D'autre part, les animaux sont pesés avant et après traitement.
Dans ces conditions, les composés de l'invention n'ont pas d'influence sur le taux de glucose circulant mais diminuent le taux de triglycérides (TG) et d'acides gras libres plasmatiques (AGL) ainsi que celui de l'insuline immuno-réactive. Cette activité est égale ou supérieure à celle d'autres dérivés de thiazolidinedione de référence.

[3] = system: rats SDCD mâles; conditions: rat, in vivo
Description: Administrés per os à des rats SDCD mâles pesant 175 g les produits sont sans effet sur les éléments figurés du sang et le volume plasmatique, à la différence de la pioglitazone : […]

**Q.** Which “Pouvoir hypoglycémiant” value [1] does the source give for `O=C1NC(=O)C(Cc2ccc(CCNC(=O)c3ccccc3O)cc2)S1` (racemic) [Exemple 3, (R,S) 5-{4-[2-(salicyloyamino) éthyl]benzyl} thiazolidine-2,4-dione] here?
**A.** 100

**Q.** With `O=C(CC(c1ccccc1)c1ccccc1)NCCc1ccc(CC2SC(=O)NC2=O)cc1` (racemic) [Exemple 6, (R,S) 5-{4-[2-(3,3-diphénylpropionamido)éthyl]benzyl}thiazolidine-2,4-dione] as the compound, how does the “Pouvoir hypoglycémiant” value [1] read?
**A.** 100

**Q.** `COc1ccc(OC)c(C(=O)NCCc2ccc(CC3SC(=O)NC3=O)cc2)c1` (racemic) [Exemple 7, (R,S) 5-{4-[2-(2,5-diméthoxybenzamido)éthyl]benzyl}thiazolidine-2,4-dione] was tested. Which “Pouvoir hypoglycémiant” value [1] did it give?
**A.** 100

**Q.** With `O=C1NC(=O)C(Cc2ccc(CCNC(=O)c3ccco3)cc2)S1` (racemic) [Exemple 14, (R,S) 5-{4-[2-(fur-2-ylcarbonylamino)éthyl]benzyl}thiazolidine-2,4-dione] as the compound, how does the “Pouvoir hypoglycémiant” value [1] read?
**A.** 100

**Q.** `Cc1cc(C(=O)NCCc2ccc(CC3SC(=O)NC3=O)cc2)no1` (racemic) [Exemple 15, (R,S) 5-{4-[2-(5-méthyl 1,2-oxazol-3-ylcarbonylamino)éthyl]benzyl} thiazolidine-2,4-dione] was tested. Which “Pouvoir hypoglycémiant” value [1] did it give?
**A.** 100

**Q.** `O=C1NC(=O)C(Cc2ccc(CCNC(=O)c3cnccn3)cc2)S1` (racemic) [Exemple 25, (R,S) 5-{4-[2-(pyrazin-2-ylcarbonylamino)éthyl]benzyl}thiazolidine-2,4-dione] was tested. Which “Pouvoir hypoglycémiant” value [1] did it give?
**A.** 100

**Q.** How did the “Pouvoir hypoglycémiant” value [1] turn out when `CN(C)c1ccccc1C(=O)NCCc1ccc(CC2SC(=O)NC2=O)cc1` (racemic) [Exemple 28, (R,S) 5-{4-[2-(2-diméthylaminobenzamido)éthyl]benzyl}thiazolidine-2,4-dione] was run?
**A.** 100

**Q.** And the “Glycémie (%)” value [2]?
**A.** 99%

**Q.** And the “Plasma insuline (%)” value [2]?
**A.** 75%

**Q.** What about the “Poids ΔP% J₁₁-J₁” value [2] of the same compound?
**A.** +103%

**Q.** What about the “AGL (%)” value [2] of the same compound?
**A.** 110%

**Q.** What about the “TG (%)” value [2] of the same compound?
**A.** 89%

**Q.** Which “Pouvoir hypoglycémiant” value [1] does the source give for `COc1ccc(Cl)cc1C(=O)NCCCc1ccc(CC2SC(=O)NC2=O)cc1` (racemic) [Exemple 33, (R,S) 5-{4-[3-(2-méthoxy-5-chlorobenzamido)propyl]benzyl}thiazolidine-2,4-dione] here?
**A.** 100

**Q.** `O=C1NC(=O)C(Cc2ccc(CCNC(=O)c3cccs3)cc2)S1` (racemic) [Exemple 35, (R,S) 5-{4-[2-(thién-2-ylcarbonylamino)éthyl]benzyl}thiazolidine-2,4-dione] was tested. Which “Pouvoir hypoglycémiant” value [1] did it give?
**A.** 100

**Q.** For `COc1ccc(Cl)cc1C(=O)NCc1ccc(CC2SC(=O)NC2=O)cc1` (racemic) [Exemple 36, (R,S) 5-{4-[(5-chloro-2-méthoxybenzamido)méthyl]benzyl}thiazolidine-2,4-dione], which “Pouvoir hypoglycémiant” value [1] is on record?
**A.** 100

**Q.** How did the “Pouvoir hypoglycémiant” value [1] turn out when `CC(C)(C)c1cc(OCCc2ccc(CC3SC(=O)NC3=O)cc2)cc(C(C)(C)C)c1O` (racemic) [Exemple 41, (R,S) 5-{4-[2-(3,5-di-tert-butyl-4-hydroxyphénoxy)éthyl]benzyl} thiazolidine-2,4-dione] was run?
**A.** 100

**Q.** Which “Pouvoir hypoglycémiant” value [1] does the source give for `COc1ccc(C=CC(=O)NCCc2ccc(CC3SC(=O)NC3=O)cc2)cc1OC` (racemic) [Exemple 43, (R,S) 5-{4-[2-(3-(3,4-diméthoxyphényl)prop-2-énoylamino)éthyl]benzyl} thiazolidine-2,4-dione] here?
**A.** 100

**Q.** Which “Pouvoir hypoglycémiant” value [1] does the source give for `O=C(C=Cc1ccc2c(c1)OCO2)NCCc1ccc(CC2SC(=O)NC2=O)cc1` (racemic) [Exemple 44, (R,S) 5-{4-[2-(3-(3,4-méthylènedioxyphényl)prop-2-énoylamino)éthyl]benzyl} thiazolidine-2,4-dione] here?
**A.** 100

**Q.** With `O=C1NC(=O)C(Cc2ccc(CCNC(=O)C3c4ccccc4Oc4ccccc43)cc2)S1` (racemic) [Exemple 45, (R,S) 5-{4-[2-(xanthén-9-ylcarbonylamino)éthyl]benzyl}thiazolidine-2,4-dione] as the compound, how does the “Pouvoir hypoglycémiant” value [1] read?
**A.** 100

**Q.** How did the “Pouvoir hypoglycémiant” value [1] turn out when `Cc1cccc(C)c1C(C(=O)NCCc1ccc(CC2SC(=O)NC2=O)cc1)c1c(C)cccc1C` (racemic) [Exemple 46, (R,S) 5-{4-[2-(2,2-bis(2,6-diméthylphényl)acétylamino)éthyl]benzyl} thiazolidine-2,4-dione] was run?
**A.** 100

**Q.** For `CC1(COc2ccc(CC3SC(=O)NC3=O)cc2)CCCCC1` (stereo not drawn) [Ciglitazone, reference compound], which “Pouvoir hypoglycémiant” value [1] is on record?
**A.** 100

**Q.** How did the “Pouvoir hypoglycémiant” value [1] turn out when `COc1ccc(Cl)cc1C(=O)NCCc1ccc(CC2SC(=O)NC2=O)cc1` (stereo not drawn) [Exemple 1, 5-{4-[2-(2-méthoxy 5-chlorobenzamido) éthyl]benzyl} thiazolidine 2,4-dione] was run?
**A.** 100

**Q.** What about the “Glycémie (%)” value [2] of the same compound?
**A.** 113%

**Q.** And the “Plasma insuline (%)” value [2]?
**A.** 71%

**Q.** What about the “Poids ΔP% J₁₁-J₁” value [2] of the same compound?
**A.** +112%

**Q.** And the “AGL (%)” value [2]?
**A.** 83%

**Q.** What about the “TG (%)” value [2] of the same compound?
**A.** 94%

**Q.** What about the Globules blancs ([3]; 100 mg/kg) of the same compound?
**A.** - 6%

**Q.** What about the Globules rouges ([3]; 100 mg/kg) of the same compound?
**A.** - 2%

**Q.** And the Hématocrite ([3]; 100 mg/kg)?
**A.** + 11%

**Q.** What about the Hémoglobine ([3]; 100 mg/kg) of the same compound?
**A.** + 11%

**Q.** What about the Globules blancs ([3]; 250 mg/kg) of the same compound?
**A.** - 4%

**Q.** And the Globules rouges ([3]; 250 mg/kg)?
**A.** - 11%

**Q.** What about the Hématocrite ([3]; 250 mg/kg) of the same compound?
**A.** + 4%

**Q.** And the Hémoglobine ([3]; 250 mg/kg)?
**A.** + 4%

**Q.** Which “Pouvoir hypoglycémiant” value [1] does the source give for `O=C1NC(=O)C(Cc2ccc(CCN3C(=O)c4ccccc4C3=O)cc2)S1` (stereo not drawn) [Exemple 4, 5-{4-[2-(phtalimido)éthyl]benzyl}thiazolidine-2,4-dione] here?
**A.** 100

**Q.** And the “Glycémie (%)” value [2]?
**A.** 108%

**Q.** What about the “Plasma insuline (%)” value [2] of the same compound?
**A.** 72%

**Q.** What about the “Poids ΔP% J₁₁-J₁” value [2] of the same compound?
**A.** +132%

**Q.** And the “AGL (%)” value [2]?
**A.** 108%

**Q.** What about the “TG (%)” value [2] of the same compound?
**A.** 78%

**Q.** `COc1ccc(Cl)cc1C(=O)NC[C@@H](O)c1ccc(C[C@H]2SC(=O)NC2=O)cc1` [Exemple 40, (R,S) 5-{4-[1-hydroxy-2-(5-chloro-2-méthoxybenzamido)éthyl]benzyl} thiazolidine-2,4-dione] was tested. Which “Pouvoir hypoglycémiant” value [1] did it give?
**A.** 100

**Q.** Which results are given for `CCc1ccc(CCOc2ccc(CC3SC(=O)NC3=O)cc2)nc1` (stereo not drawn) [Pioglitazone, reference compound]?
**A.** Glycémie (%) [2]: 115%; Plasma insuline (%) [2]: 49%; Poids ΔP% J₁₁-J₁ [2]: +320%; AGL (%) [2]: 57%; TG (%) [2]: 35%; Globules blancs ([3]; 100 mg/kg): - 46%; Globules rouges ([3]; 100 mg/kg): - 37%; Hématocrite ([3]; 100 mg/kg): - 26%; Hémoglobine ([3]; 100 mg/kg): - 29%
